Data as given in patent publication US6110943A, “N-substituted (thiophen-2-yl)-piperidines and tetrahydropyridines as serotonergic agents” (American Home Products Corporation, priority 1999, dated 2000).

How the values were obtained:
[1] = tested on: 5-HT1A serotonin receptor subtype; details: buspirone as standard for anxiolytic activity; cited from earlier work
[2] = target: T1, 5-HT1A serotonin receptor (Rattus norvegicus, UniProt P19327); assay: displacement of [^3 H] 8-OHDPAT (dipropylaminotetralin) from the 5-HT1A serotonin receptor (Hall et al., J. Neurochem. 44, 1685 (1985)); details: read-out: 5-HT1A Binding (IC50)
T1 construct: following the procedure of Hall et al., J. Neurochem; 44, 1685 (1985); from tissue
T1 sequence (P19327 1-422): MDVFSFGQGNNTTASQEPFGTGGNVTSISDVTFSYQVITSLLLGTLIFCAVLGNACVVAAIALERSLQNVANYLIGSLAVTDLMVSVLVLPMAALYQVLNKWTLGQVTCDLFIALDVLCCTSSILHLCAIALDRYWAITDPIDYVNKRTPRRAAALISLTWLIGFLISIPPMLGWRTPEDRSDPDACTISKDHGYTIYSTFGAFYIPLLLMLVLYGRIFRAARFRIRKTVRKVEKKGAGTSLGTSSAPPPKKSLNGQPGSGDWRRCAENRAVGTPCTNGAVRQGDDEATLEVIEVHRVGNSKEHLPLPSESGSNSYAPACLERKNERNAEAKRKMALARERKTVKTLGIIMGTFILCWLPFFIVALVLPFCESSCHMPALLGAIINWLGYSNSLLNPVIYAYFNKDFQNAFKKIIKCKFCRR
Protocol: Representative compounds of the present invention were evaluated and determined to have high affinity for the serotonin 5-HT1A receptor by testing the compound's ability to displace [^3 H] 8-OHDPAT (dipropylaminotetralin) from the 5-HT1A serotonin receptor following the procedure of Hall et al., J. Neurochem. 44, 1685 (1985). […] The anxiolytic activity of buspirone is believed to be, at least partially, due to its 5-HT1A receptor affinity (Vander Maclen et al., Eur. J. Pharmacol. 1986,129 (1-2)[…]).

Row | Structure (SMILES) | 5-HT1A receptor affinity (in words) [1] | IC50 [2] [nM]
1 | O=C1CC2(CCCC2)CC(=O)N1CCCCN1CCN(c2ncccn2)CC1 [buspirone] | potent affinity | 
2 | COc1ccsc1C1(O)CCN(C[C@H](Cc2ccccc2)NC(=O)OC(C)(C)C)CC1 [Example 1, (S)-{1-Benzyl-2-[4-hydroxy-4-(3-methoxy-thiophen-2-yl)-piperidin-1-yl]-ethyl}-carbamic acid tert-butyl ester] |  | 80
3 | COc1ccsc1C1CCN(C[C@H](Cc2ccccc2)NC(=O)C2CCCCC2)CC1 [Example 4, Cyclohexanecarboxylic acid {(1S)-1-benzyl-2-[4-(3-methoxy-thiophen-2-yl)-piperidin-1-yl]-ethyl}-amide] |  | 1.1
4 | COc1ccsc1C1=CCN(C[C@H](Cc2ccccc2)NC(=O)OC(C)(C)C)CC1 [Example 2, (S)-{1-Benzyl-2-[4-(3-methoxy-thiophen-2-yl)-3,6-dihydro-2H-pyridin-1-yl]-ethyl}-carbamic acid tert-butyl ester] |  | 1.6
5 | COc1ccsc1C1=CCN(C[C@H](Cc2ccccc2)NC(=O)C2CCCCC2)CC1 [Example 3, (S)-cyclohexanecarboxylic acid {1-benzyl-2-[4-(3-methoxy-thiophen-2-yl)-3,6-dihydro-2H-pyridin-1-yl]-ethyl}-amide] |  | 0.78
